{"source": "patent US20130323323A1", "about": "“Therapeutic Method and Associated Compound for Augmenting the Liver's Metabolization of Oxygen-Modified Toxins” (priority 2012, published 2013)", "origin": "cited, not measured here", "key": {"[1]": {"conditions": "limited supply of oxygen to the liver"}, "[2]": {"conditions": "pure oxygen via inhalation; rats, cats, and dogs"}, "[3]": {"assay": "not given", "remark": "listed apart in the source"}}, "note": "Where two headings read alike, the source gives them in different places."}
{"smiles": "Cn1c(=O)c2c(ncn2C)n(C)c1=O", "note": "[Caffeine]", "values": [{"measurement": "time to peak plasma concentration", "setting": "after ingestion", "value": "30 to 45", "unit": "min"}, {"measurement": "bioavailable", "setting": "in vivo", "value": "~100", "unit": "%"}]}
{"smiles": "CCO", "note": "[alcohol, Ethanol]", "values": [{"measurement": "rate at which alcohol is metabolized (plateau)", "setting": "[1]", "value": "around 0.02 g alcohol/100 ml blood per hour"}]}
{"smiles": "O=O", "note": "[oxygen]", "values": [{"measurement": "increase in the elimination rate of ethanol", "setting": "[2]", "value": "No measurable increase"}, {"measurement": "solubility of oxygen in water", "setting": "[3]; 5 degrees Celsius and 1 standard atmosphere", "value": 9, "unit": "ppm"}, {"measurement": "solubility of oxygen in water", "setting": "[3]; 25 degrees Celsius and 1 standard atmosphere", "value": 6, "unit": "ppm"}]}
